The values that follow are results of earlier work, collected in patent US9278997B2, “Processes for the manufacture of macrocyclic depsipeptides and new intermediates” (NOVARTIS AG, priority 2011, dated 2016).

The target of this series is chymotrypsin (Bos taurus, UniProt P00766). The following applies: from J. Nat. Prod. 68(9), 1324-7 (2005); read-out: IC50 value for inhibition of chymotrypsin.

With “(S)-2-acetamido-N^1-((1S,2S,5S,8S,11R,12S,15S,18S,21R)-2-benzyl-21-hydroxy-5-(4-hydroxybenzyl)-15-isobutyl-8-isopropyl-4,11-dimethyl-3,6,9,13,16,22-hexaoxo-10-oxa-1,4,7,14,17-pentaazabicyclo[16.3.1]docosan-12-yl)pentanediamide [Nostopeptin BN920]”, the IC50 (in general, the point on the concentration scale where inhibition reaches its midpoint) is 31 nM.
